Reference: ChEMBL document CHEMBL5537122, “Design, synthesis, and biological evaluation of 4-(2-fluorophenoxy)-7-methoxyquinazoline derivatives as dual EGFR/c-Met inhibitors for the treatment of NSCLC” (Eur J Med Chem, 2024)

Key:
NCI-H1975 [1] = test: Induction in apoptosis in human NCI-H1975 cells assessed as necrotic cells at 1 uM incubated for 24 hrs by Annexin V-FITC/Propidium Iodide staining based flow cytometry analysis (reference value: 1.42 %); format: functional
A549 [2] = test: Induction of cell cycle arrest in human A549 cells overexpressing c-MET assessed as accumulation of cells at S phase at 1 uM incubated for 24 hrs by RNase A/propidium iodide staining based flow cytometric analysis (reference value: 37.87 %); format: functional
A549 [3] = test: Induction in apoptosis in human A549 cells overexpressing c-MET assessed as late apoptotic cells at 1 uM incubated for 24 hrs by Annexin V-FITC/Propidium Iodide staining based flow cytometry analysis (reference value: 7.59 %); format: functional
L02 [4] = test: Induction in apoptosis in human L02 cells assessed as early apoptotic cells at 1 uM incubated for 24 hrs by Annexin V-FITC/Propidium Iodide staining based flow cytometry analysis (reference value: 0.26 %); format: toxicity, cell-based; conditions: l02, 24 h
A549 [5] = test: Induction in apoptosis in human A549 cells overexpressing c-MET assessed as necrotic cells at 1 uM incubated for 24 hrs by Annexin V-FITC/Propidium Iodide staining based flow cytometry analysis (reference value: 3.22 %); format: functional
A549 [6] = test: Induction of cell cycle arrest in human A549 cells overexpressing c-MET assessed as accumulation of cells at G1/G0 phase at 1 uM incubated for 24 hrs by RNase A/propidium iodide staining based flow cytometric analysis (reference value: 49.24 %); format: functional
NCI-H1975 [7] = test: Induction in apoptosis in human NCI-H1975 cells assessed as viable cells at 1 uM incubated for 24 hrs by Annexin V-FITC/Propidium Iodide staining based flow cytometry analysis (reference value: 91.58 %); format: functional; conditions: read-out: Activity
A549 [8] = test: Induction in apoptosis in human A549 cells overexpressing c-MET assessed as viable cells at 1 uM incubated for 24 hrs by Annexin V-FITC/Propidium Iodide staining based flow cytometry analysis (reference value: 81.92 %); format: functional; conditions: read-out: Activity
NCI-H1975 [9] = test: Induction in apoptosis in human NCI-H1975 cells assessed as early apoptotic cells at 1 uM incubated for 24 hrs by Annexin V-FITC/Propidium Iodide staining based flow cytometry analysis (reference value: 2.54 %); format: functional
NCI-H1975 [10] = test: Induction in apoptosis in human NCI-H1975 cells assessed as late apoptotic cells at 1 uM incubated for 24 hrs by Annexin V-FITC/Propidium Iodide staining based flow cytometry analysis (reference value: 4.46 %); format: functional
A549 [11] = test: Induction in apoptosis in human A549 cells overexpressing c-MET assessed as early apoptotic cells at 1 uM incubated for 24 hrs by Annexin V-FITC/Propidium Iodide staining based flow cytometry analysis (reference value: 7.27 %); format: functional
L02 [12] = test: Induction in apoptosis in human L02 cells assessed as necrotic cells at 1 uM incubated for 24 hrs by Annexin V-FITC/Propidium Iodide staining based flow cytometry analysis (reference value: 6.63 %); format: toxicity, cell-based; conditions: l02, 24 h
[13] = Hemolytic activity in sheep erythrocytes at 64 ug/ml incubated for 2 hr by UV spectrophotometer relative to control; format: toxicity, cell-based, Ovis aries, Erythrocyte; conditions: at 64 µg/mL, read-out: Activity
L02 [14] = test: Induction in apoptosis in human L02 cells assessed as late apoptotic cells at 1 uM incubated for 24 hrs by Annexin V-FITC/Propidium Iodide staining based flow cytometry analysis (reference value: 0.36 %); format: toxicity, cell-based; conditions: l02, 24 h
[15] = Induction in apoptosis in human L02 cells assessed as viable cells at 1 uM incubated for 24 hrs by Annexin V-FITC/Propidium Iodide staining based flow cytometry analysis (reference value: 92.75 %); format: toxicity, cell-based; conditions: read-out: Activity
PC-9 = test: Antiproliferative activity against human PC-9 cells overexpressing c-Met and EGFR assessed as reduction in cell viability incubated for 72 hrs by MTT assay; format: functional, cell-based; conditions: PC-9, 72 h
A549 [16] = test: Antiproliferative activity against human A549 cells overexpressing c-Met and EGFR assessed as reduction in cell viability incubated for 72 hrs by MTT assay; format: functional, cell-based; conditions: A549, 72 h
[17] = target: Epidermal growth factor receptor (Homo sapiens, UniProt P00533, L858R); test: biochemical
Sequence of Epidermal growth factor receptor (Homo sapiens, UniProt P00533, L858R) (P00533 25-1210 L858R limits assumed): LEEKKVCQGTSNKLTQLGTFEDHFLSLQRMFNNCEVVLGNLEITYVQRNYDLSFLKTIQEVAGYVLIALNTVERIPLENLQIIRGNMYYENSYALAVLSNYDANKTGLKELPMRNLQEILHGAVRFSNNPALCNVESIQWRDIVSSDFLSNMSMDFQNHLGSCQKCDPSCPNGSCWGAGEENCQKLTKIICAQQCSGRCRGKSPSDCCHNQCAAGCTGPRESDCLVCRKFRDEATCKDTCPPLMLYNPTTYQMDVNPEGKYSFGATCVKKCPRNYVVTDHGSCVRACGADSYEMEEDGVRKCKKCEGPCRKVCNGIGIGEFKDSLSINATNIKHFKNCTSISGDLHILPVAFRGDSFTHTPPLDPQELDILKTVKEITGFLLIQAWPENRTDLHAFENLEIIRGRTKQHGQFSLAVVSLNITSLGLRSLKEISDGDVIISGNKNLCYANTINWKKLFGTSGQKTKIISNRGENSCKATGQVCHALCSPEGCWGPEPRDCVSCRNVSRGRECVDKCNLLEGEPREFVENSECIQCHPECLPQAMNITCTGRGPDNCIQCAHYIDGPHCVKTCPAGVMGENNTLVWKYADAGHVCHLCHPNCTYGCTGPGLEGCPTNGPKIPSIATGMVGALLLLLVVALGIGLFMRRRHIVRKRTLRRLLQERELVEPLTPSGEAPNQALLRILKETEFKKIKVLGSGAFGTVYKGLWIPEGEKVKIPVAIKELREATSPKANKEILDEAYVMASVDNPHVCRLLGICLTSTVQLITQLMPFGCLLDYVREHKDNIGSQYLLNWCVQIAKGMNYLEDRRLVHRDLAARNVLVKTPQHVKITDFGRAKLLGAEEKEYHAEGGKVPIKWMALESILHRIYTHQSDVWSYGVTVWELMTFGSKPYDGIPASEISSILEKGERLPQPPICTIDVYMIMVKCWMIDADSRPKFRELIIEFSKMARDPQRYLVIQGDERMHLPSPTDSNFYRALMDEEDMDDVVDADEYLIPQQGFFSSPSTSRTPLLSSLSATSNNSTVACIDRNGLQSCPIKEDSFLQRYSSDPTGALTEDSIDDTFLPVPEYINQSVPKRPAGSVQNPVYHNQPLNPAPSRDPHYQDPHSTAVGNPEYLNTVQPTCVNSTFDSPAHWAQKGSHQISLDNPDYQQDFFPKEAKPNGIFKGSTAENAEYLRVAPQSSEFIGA

[18] = target: Hepatocyte growth factor receptor (Homo sapiens, UniProt P08581); test: biochemical
Sequence of Hepatocyte growth factor receptor (P08581 whole entry): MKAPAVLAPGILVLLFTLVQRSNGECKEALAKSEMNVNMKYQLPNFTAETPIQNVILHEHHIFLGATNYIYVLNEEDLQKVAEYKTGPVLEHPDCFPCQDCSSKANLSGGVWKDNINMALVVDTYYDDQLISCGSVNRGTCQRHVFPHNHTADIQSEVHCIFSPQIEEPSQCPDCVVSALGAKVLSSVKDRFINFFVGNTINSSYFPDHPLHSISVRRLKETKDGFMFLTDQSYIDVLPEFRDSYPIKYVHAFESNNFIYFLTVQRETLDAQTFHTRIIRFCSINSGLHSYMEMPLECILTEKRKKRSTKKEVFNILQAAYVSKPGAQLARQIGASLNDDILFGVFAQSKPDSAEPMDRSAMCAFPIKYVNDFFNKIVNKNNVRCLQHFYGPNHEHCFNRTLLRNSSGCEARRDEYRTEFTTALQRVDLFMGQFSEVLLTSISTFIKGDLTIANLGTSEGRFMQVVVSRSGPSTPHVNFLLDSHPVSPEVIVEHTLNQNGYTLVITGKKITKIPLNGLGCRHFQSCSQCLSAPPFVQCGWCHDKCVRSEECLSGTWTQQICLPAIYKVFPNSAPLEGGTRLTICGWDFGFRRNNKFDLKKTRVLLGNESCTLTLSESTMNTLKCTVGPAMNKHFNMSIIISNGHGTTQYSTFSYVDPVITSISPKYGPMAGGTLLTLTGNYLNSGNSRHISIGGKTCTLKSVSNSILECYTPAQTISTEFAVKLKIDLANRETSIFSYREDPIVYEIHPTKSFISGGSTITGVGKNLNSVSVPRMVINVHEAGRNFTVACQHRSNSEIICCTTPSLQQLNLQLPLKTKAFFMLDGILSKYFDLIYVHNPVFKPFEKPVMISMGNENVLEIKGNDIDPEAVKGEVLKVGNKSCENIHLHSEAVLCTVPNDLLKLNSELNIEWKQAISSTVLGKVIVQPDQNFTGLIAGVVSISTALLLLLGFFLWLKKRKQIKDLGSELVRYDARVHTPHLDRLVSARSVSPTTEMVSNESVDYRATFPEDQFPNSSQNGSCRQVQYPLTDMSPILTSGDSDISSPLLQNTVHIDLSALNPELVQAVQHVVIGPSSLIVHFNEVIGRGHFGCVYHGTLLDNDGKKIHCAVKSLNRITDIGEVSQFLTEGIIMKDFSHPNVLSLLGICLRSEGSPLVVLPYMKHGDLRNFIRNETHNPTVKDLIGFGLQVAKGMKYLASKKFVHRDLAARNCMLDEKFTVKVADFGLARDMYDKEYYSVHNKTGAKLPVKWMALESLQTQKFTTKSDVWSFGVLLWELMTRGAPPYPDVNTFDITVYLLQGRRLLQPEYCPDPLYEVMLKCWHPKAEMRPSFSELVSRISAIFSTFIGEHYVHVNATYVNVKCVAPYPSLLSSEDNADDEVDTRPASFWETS
Description: Inhibition of N-terminal GST tagged human recombinant c-Met (956 to end residues) expressed in baculovirus infected Sf9 cells using Poly (4:1 Glu, Tyr) as substrate incubated for 60 mins in presence of ATP by ADP-Glo luminescent assay

NCI-H1975 [19] = test: Antiproliferative activity against human NCI-H1975 cells overexpressing c-Met and EGFR assessed as reduction in cell viability incubated for 72 hrs by MTT assay; format: functional, cell-based; conditions: NCI-H1975, 72 h
[20] = target: Epidermal growth factor receptor (Homo sapiens, UniProt P00533); test: biochemical
Sequence of Epidermal growth factor receptor (Homo sapiens, UniProt P00533) (P00533 whole entry): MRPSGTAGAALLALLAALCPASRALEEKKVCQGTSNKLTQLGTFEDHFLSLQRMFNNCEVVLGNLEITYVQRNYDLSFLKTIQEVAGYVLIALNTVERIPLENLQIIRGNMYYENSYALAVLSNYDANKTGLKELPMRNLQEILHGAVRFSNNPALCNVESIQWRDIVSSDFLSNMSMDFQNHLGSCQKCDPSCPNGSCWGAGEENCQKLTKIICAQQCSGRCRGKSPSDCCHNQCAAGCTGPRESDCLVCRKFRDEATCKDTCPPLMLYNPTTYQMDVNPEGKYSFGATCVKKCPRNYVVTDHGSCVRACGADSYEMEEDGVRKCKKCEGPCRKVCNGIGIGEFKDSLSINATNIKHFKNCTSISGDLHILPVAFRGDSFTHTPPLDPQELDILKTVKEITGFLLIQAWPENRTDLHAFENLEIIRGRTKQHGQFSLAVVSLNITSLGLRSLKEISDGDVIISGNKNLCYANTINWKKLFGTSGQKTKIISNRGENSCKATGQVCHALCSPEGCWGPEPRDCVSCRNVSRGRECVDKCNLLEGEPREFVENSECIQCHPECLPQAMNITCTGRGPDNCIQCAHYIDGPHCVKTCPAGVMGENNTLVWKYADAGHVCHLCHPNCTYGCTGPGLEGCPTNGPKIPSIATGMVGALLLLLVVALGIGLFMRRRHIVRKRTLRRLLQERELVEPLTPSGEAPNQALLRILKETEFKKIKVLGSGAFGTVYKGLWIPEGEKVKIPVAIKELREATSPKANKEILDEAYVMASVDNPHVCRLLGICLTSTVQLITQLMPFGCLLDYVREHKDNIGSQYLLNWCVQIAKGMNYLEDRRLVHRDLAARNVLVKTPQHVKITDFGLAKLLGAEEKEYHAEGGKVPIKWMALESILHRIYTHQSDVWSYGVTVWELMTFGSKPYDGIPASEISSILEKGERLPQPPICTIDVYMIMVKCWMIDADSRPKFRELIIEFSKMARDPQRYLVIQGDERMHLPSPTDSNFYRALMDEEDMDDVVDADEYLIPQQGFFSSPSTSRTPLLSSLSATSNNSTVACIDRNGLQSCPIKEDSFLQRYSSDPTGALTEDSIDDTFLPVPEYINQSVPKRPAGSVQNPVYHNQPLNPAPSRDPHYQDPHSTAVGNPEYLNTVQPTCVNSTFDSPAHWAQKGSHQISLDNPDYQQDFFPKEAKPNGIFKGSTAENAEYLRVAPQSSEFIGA
Description: Inhibition of N-terminal GST tagged human recombinant EGFR (695 to end residues) expressed in baculovirus infected Sf9 cells using Poly (4:1 Glu, Tyr) as substrate incubated for 60 mins in presence of ATP by ADP-Glo luminescent assay

Homo sapiens = organism: Homo sapiens; test: Inhibition of EGFR T790/C797S mutant (unknown origin) at 10 uM relative to control

| SMILES | IC50 (PC-9) [µM] | IC50 (A549 [16]) [µM] | IC50 [17] [µM] | IC50 [18] [µM] | IC50 (NCI-H1975 [19]) [µM] | IC50 [20] [µM] | other results |
| --- | --- | --- | --- | --- | --- | --- | --- |
| CN(C)C/C=C/C(=O)Nc1cc2c(Nc3ccc(F)c(Cl)c3)ncnc2cc1O[C@H]1CCOC1 [AFATINIB] | – | – | – | – | – | – | Activity (NCI-H1975 [1]): 1.88%; Activity (A549 [2]): 36.86%; Activity (A549 [3]): 12.21%; Activity (L02 [4]): 0.19%; Activity (A549 [5]): 5.8%; Activity (A549 [6]): 52.24%; viability at 1 µM (NCI-H1975 [7]): 89.7%; viability at 1 µM (A549 [8]): 72.6%; Activity (NCI-H1975 [9]): 2.21%; Activity (NCI-H1975 [10]): 6.17%; Activity (A549 [11]): 9.36%; Activity (L02 [12]): 3.78%; hemolysis at 2 h, 64 ug/ml [13]: < 5%; Activity (L02 [14]): 0.26%; viability at 24 h, 1 µM [15]: 95.8% |
| CCC(=O)Nc1cc2c(Oc3ccc(NC(=O)NCCC4CCCCC4)cc3F)ncnc2cc1OC | > 50 | 2.43 | > 10 | 0.143 | 2.94 | 4.69 | – |
| COc1cc2ncnc(Oc3ccc(NC(=O)CCCc4ccccc4)cc3F)c2cc1NC(=O)CCC(C)C | 33.7 | > 50 | > 10 | 1.48 | 13.7 | > 10 | – |
| CCC(=O)Nc1cc2c(Oc3ccc(NC(=O)CCCc4ccc(OC)cc4)cc3F)ncnc2cc1OC | 9.28 | 2.87 | > 10 | 0.273 | 7.05 | > 10 | – |
| C=CC(=O)Nc1cc2c(Oc3ccc(NC(=O)c4sc(-c5ccccc5)nc4C)cc3F)cccc2cc1OC | 2.33 | 1.94 | 0.518 | 0.0386 | 2.4 | 0.173 | – |
| COc1cc2c(Oc3ccc(NC(=O)C4(C(=O)Nc5ccc(F)cc5)CC4)cc3F)ccnc2cc1OCCCN1CCOCC1 | – | – | – | – | – | – | inhibition (Homo sapiens): < 50% |
| CCC(=O)Nc1cc2c(Oc3ccc(NC(=O)CCCc4ccc(F)cc4)cc3F)ncnc2cc1OC | 3.1 | 3.68 | 5.31 | 0.354 | 1.31 | 6.87 | – |
| CCC(=O)Nc1cc2c(Oc3ccc(NC(=O)CCCc4ccccc4)cc3F)ncnc2cc1OC | 2.6 | 7.03 | 2.27 | 0.444 | 3.98 | 1.44 | – |
| CCC(=O)Nc1cc2c(Oc3ccc(NC(=O)c4c(-c5c(Cl)cccc5Cl)noc4C)cc3F)cccc2cc1OC | 5.22 | 7.95 | > 10 | 3.48 | 4.91 | > 10 | – |
| CCCC(=O)Nc1cc2c(Oc3ccc(NC(=O)n4c(=O)c(-c5ccccc5)c(C)n4C)cc3F)cccc2cc1OC | > 50 | 10.2 | > 10 | 0.00411 | > 50 | 4.21 | – |
| CCC(=O)Nc1cc2c(Oc3ccc(NC(=O)CCCc4ccc(C)cc4)cc3F)ncnc2cc1OC | 7.84 | 3.29 | > 10 | 1.18 | 19.1 | 8.43 | – |
| C/C=C/C(=O)Nc1cc2c(Oc3ccc(NC(=O)CCCc4ccccc4)cc3F)ncnc2cc1OC | 5.78 | 5.41 | 3.54 | 0.465 | 4.65 | 2.89 | – |
| CCC(=O)Nc1cc2c(Oc3ccc(NC(=O)c4sc(-c5ccccc5)nc4C)cc3F)cccc2cc1OC | 2.94 | 2.35 | > 10 | 0.0706 | 3.56 | 3.9 | – |
| CCCCC(=O)Nc1cc2c(Oc3ccc(NC(=O)CCCc4ccc(C)cc4)cc3F)ncnc2cc1OC | > 50 | 6.22 | > 10 | 2 | > 50 | > 10 | – |
| CCCCC(=O)Nc1cc2c(Oc3ccc(NC(=O)CCCc4ccsc4)cc3F)ncnc2cc1OC | > 50 | > 50 | > 10 | 1.56 | 37.6 | > 10 | – |
| COc1ccc(CCCC(=O)Nc2ccc(Oc3ncnc4cc(OC)c(NC(=O)CCC(C)C)cc34)c(F)c2)cc1 | > 50 | > 50 | > 10 | > 10 | 10.5 | > 10 | – |
| CCCC(=O)Nc1cc2c(Oc3ccc(NC(=O)c4c(-c5c(Cl)cccc5Cl)noc4C)cc3F)cccc2cc1OC | > 50 | > 50 | > 10 | 5.93 | > 50 | > 10 | – |
| CCCC(=O)Nc1cc2c(Oc3ccc(NC(=O)CCCc4ccc(F)cc4)cc3F)ncnc2cc1OC | > 50 | > 50 | > 10 | 0.477 | 12 | > 10 | – |
